Test results taken from ChEMBL document CHEMBL3593205, “Total Synthesis of 4,5-Didehydroguadiscine: A Potent Melanogenesis Inhibitor from the Brazilian Medicinal Herb, Hornschuchia obliqua” (J Nat Prod, 2015).
pIC50: −log10 of the molar value.

Columns and labels:
[1] = Cytotoxicity against mouse B16-4A5 cells assessed as cell viability at 3 uM after 72 hrs by MTT assay in presence of theophylline relative to control; assay type: cell-based; conditions: read-out: Activity
[2] = Cytotoxicity against mouse B16-4A5 cells assessed as cell viability at 10 uM after 72 hrs by MTT assay in presence of theophylline relative to control; assay type: cell-based; conditions: read-out: Activity
[3] = Inhibition of theophylline-stimulated melanogenesis in mouse B16-4A5 cells after 72 hrs by microplate reader analysis; assay type: functional, cell-based
[4] = Potency index, ratio of arbutin IC50 to compound IC50 for inhibition of theophylline-stimulated melanogenesis in mouse B16-4A5 cells; assay type: functional

## COc1ccc2c(c1)C(C)(C)c1nccc3cc4c(c-2c13)OCO4
[1]
  viability at 72 h, 3 µM: 95.7%
[2]
  viability at 72 h, 10 µM: 86.7%
[3]
  pIC50: 5.33
[4]
  Ratio IC50: 40
